Tests used:
[1] = tested on: hypothermia induced by the injection of apomorphine; test: Apomorphine hypothermia antagonism test; format: in vivo, mice; settings: for Activity in antagonism of apomorphine hypothermia: in words
Method: The apomorphine hypothermia antagonism test is carried out as follows: mice are injected with a dose of apomorphine known to reduce body temperature approximately 4° C. […] The degree of antagonism is expressed as a percent reduction (as compared with controls) of the temperature decrease produced by the injection of the apomorphine. The reserpine hypothermia reversal test is carried out as follows: groups of mice are injected with reserpine and 16.5 hours later are injected intraperitoneally with graded doses of the drug, a different dose level being given to each group of mice. Temperatures are measured at 1 hour after injection of the drug under test and again the effectiveness of the drug is expressed as a percentage decrease in the hypothermia induced by the injection of reserpine as compared with the control group. In the tablets which follow, Table 4 gives the results in the apomorphine antagonism and reserpine reversal hypothermia tests for the secondary amines of this invention. In the table, the first column gives the substituent attached to the oxygen atom at the 3 position of the propylamine chain; columns 2 to 4 the percent antagonism against apomorphine hypothermia at dose levels of 0.3, 1 and 3 mg./kg. and columns 5-7 the percent reversal of reserpine hypothermia at the same dose levels.

[2] = tested on: hypothermia induced by the injection of reserpine; test: Reserpine hypothermia reversal test; format: in vivo, mice; settings: in words
Method: The apomorphine hypothermia antagonism test is carried out as follows: mice are injected with a dose of apomorphine known to reduce body temperature approximately 4° C. The compound under test is injected 1/2 hour before the injection of the apomorphine and the temperatures measured 1/2 hour after injection. The degree of antagonism is expressed as a percent reduction (as compared with controls) of the temperature decrease produced by the injection of the apomorphine. The reserpine hypothermia reversal test is carried out as follows: groups of mice are injected with reserpine and 16.5 hours later are injected intraperitoneally with graded doses of the drug, a different dose level being given to each group of mice. Temperatures are measured at 1 hour after injection of the drug under test and again the effectiveness of the drug is expressed as a percentage decrease in the hypothermia induced by the injection of reserpine as compared with the control group. In the tablets which follow, Table 4 gives the results in the apomorphine antagonism and reserpine reversal hypothermia tests for the secondary amines of this invention. In the table, the first column gives the substituent attached to the oxygen atom at the 3 position of the propylamine chain; columns 2 to 4 the percent antagonism against apomorphine hypothermia at dose levels of 0.3, 1 and 3 mg./kg. and columns 5-7 the percent reversal of reserpine hypothermia at the same dose levels.

[3] = tested on: QRS complex of the electrocardiogram; test: Electrocardiogram in anesthetized cats after intravenous injection; settings: in words
[4] = tested on: response rates of pigeons; test: Operant behavior, fixed-ratio, fixed interval schedule; format: in vivo; settings: in words
Source text: In manifesting their psychotropic action, the compounds of this invention also affect the behavior of animals trained in a variety of operant behavior schedules. Again, the activity of compounds of this invention in this type of test parallels that of known antidepressant drugs, particularly desmethylimipramine. […] With pigeons trained under an adjusting ratio schedule, the drugs of this invention affect behavior in the same way as does the marketed antidepressant, desmethylimipramine (DMI). […] The above results are consistent with antidepressant action.

[5] = tested on: antiserotonin effect, isolated muscle strips; test: Antiserotonin effect in isolated muscle strips
brain serotonin = test: Prevention of brain serotonin depletion caused by 4-chloroamphetamine; format: in vivo; settings: rats injected with 4-chloroamphetamine; drug 15 mg./kg. intraperitoneally; 4 hours later
Method: Following this injection, the protecting drug was injected at a dose of 15 mg./kg. of rat-weight intraperitoneally and determinations of brain serotonin levels were carried out 4 hours later.

[6] = tested on: anticholinergic effect, isolated muscle strips; test: Anticholinergic effect in isolated muscle strips
[7] = tested on: antihistaminic effect, isolated muscle strips; test: Antihistaminic effect in isolated muscle strips

Structure (SMILES): CN(C)CCC=C1c2ccccc2CCc2ccccc21 [amitriptyline, reference compound]
- Reduction of apomorphine hypothermia ([1]; 10 mg./kg. dose, measured 60 minutes after injection of the apomorphine): 100%
- Activity in antagonism of apomorphine hypothermia [1]: active
- Activity in reversal of reserpine hypothermia [2]: active
- Effect on the electrocardiogram (widening of the QRS complex) [3]: causes a widening of the QRS complex of the electrocardiogram

Structure (SMILES): CNCCCN1c2ccccc2CCc2ccccc21 [desmethylimipramine]
- Response rates in fixed-ratio, fixed interval schedule [4]: A similar effect
- Activity in antagonism of apomorphine hypothermia [1]: active
- Activity in reversal of reserpine hypothermia [2]: active
- Potency as antiserotonin agent relative to N-methyl 3-(o-methoxyphenoxy)-3-phenylpropylamine [5]: three
- Brain serotonin level (brain serotonin): 0.44 ± .03 µg/g
- Potency as anticholinergic agent relative to N-methyl 3-(o-methoxyphenoxy)-3-phenylpropylamine [6]: 150 times
- Potency as antihistaminic agent relative to N-methyl 3-(o-methoxyphenoxy)-3-phenylpropylamine [7]: 150 times

From patent US4018895A, “Aryloxyphenylpropylamines in treating depression” (Eli Lilly and Company, priority 1975, dated 1977)
